From patent US6610744B2, “Methods of treatment with compounds having RARα receptor specific or selective activity” (Allergan, Inc., priority 1995, dated 2003)
≈ marks a conversion by molar mass, not a printed value.

Experiments:
[1] = test system: limb bud mesenchymal cells; experiment: Chondrogenesis suppression bioassay (teratogenic potency); format: cell-based; settings: read-out: IC50 (50% inhibition of chondrogenesis); mouse limb bud spot cultures, 96 hours after plating; greater IC50 signifies lesser teratogenecity
Protocol: High-density “spot” cultures of limb bud mesenchymal cells are used to compare the ability of various concentrations of test drugs to suppress chondrogenic differentiation as a bioassay. Forelimb buds of mouse embryos on day 12 of gestation (54±2 somites) are dissociated in a trypsin-EDTA solution, and the resultant single-cell suspension is plated as 20-μl spots (200,000 cells/spot) on plastic culture dishes. Retinoid concentrations ranging from 0.3 ng/ml to 3 μg/ml (1 nM−10 μM) are added to the culture medium (Eagle's MEM±10% fetal bovine serum, GIBCO) 24 hours after initial plating. Control cultures receive only the vehicle (ethanol, concentration≦1% by vol); Retinoic acid is used as a positive control in another set of cultures.
The cultures are terminated 96 hours after plating, at which time the medium is removed and the cells are fixed for 1 hour in 10% formalin containing 0.5% cetylpyridinium chloride. The cultures are rinsed in acetic acid and stained for 1 hour in 0.5% Alcian blue solution at pH 1.0, differentiated in 3% acetic acid, and then dehydrated in ethanol and scored for chondrogenesis under the microscope. An absence or reduction in the number of cartilage nodules in stained cultures as compared with control cultures is taken as a measure of suppression of chondrogenesis. The number of cartilage nodules stained in the whole spot, mean number of nodules, and standard deviations are calculated for four replicate cultures per treatment. […] The IC50 values are expressed in nanogram per mililiter (ng/ml) units. An IC50 value of greater concentration in this assay signifies lesser teratogenecity.

[2] = Weight loss in rats treated for 3 days; format: in vivo, rat; settings: rats, daily doses up to 90 μmol/kg/day in corn oil for 3 days; FIG. 6, FIG. 7
Protocol: Weight loss or gain that experimental animals experience upon administration of retinoid compounds is another test of the drug's toxicity, with significant weight loss at relatively low doses indicating a significant toxic side effect of the retinoid. In one experiment, groups of 5 rats were treated with varying doses (administered in corn oil) of a test retinoid for 3 days. The rats were euthanized 24 hours after the last dose.

[3] = test system: AML-193 cells (acute monocytic leukemia); experiment: AML 193 cell culture assay (3H-thymidine incorporation); format: cell-based, human; settings: FIG. 3; low concentrations
Protocol: All trans-retinoic acid (t-RA) (Sigma Chemicals Co., St. Louis, Mo.) was stored at −70° C. Prior to each experiment the compound was dissolved in 100% ethanol at 1 mM and diluted in culture medium immediately before use. All experiments were performed in subdued light. Controls were assayed using the same concentration of ethanol as present in the experimental plates and this concentration of diluent had no effect in either assay.
AML-193 was established from the blast cells classified as M5 Acute Monocyte Leukemia. The growth factor, […] (GM-CSF) was required to establish this cell line and growth factors are necessary for its continuous proliferation in chemically defined medium. AML-193 cells were grown and maintained in Iscove's modified Dulbecco's medium supplemented with 10% fetal bovine serum, glutamine and antibiotics with 5 μg/ml insulin (Sigma Chemical Co.) and 2 ng/ml rh GM-CSF (R and D Systems). The cells were diluted to a concentration of 3×10^5/ml twice a week.
AML-193 cells were plated in a 96 well round bottom microtiter plate (Costar) at a density of 1,000 cells/well. To appropriate wells, retinoid test compounds were added at the final concentrations indicated for a final volume of 150 μl/well. The plates were incubated for 96 hours at 37° C. in a humidified atmosphere of 5% CO2 in air. Subsequently, 1 μCi of [5′-^3H]-thymidine (Amersham, U.K., 43 Ci/mmol specific activity) in 25 μl culture medium was added to each well and the cells were incubated for an additional 6 hours.
The cell lines were then processed as follows: the cellular DNA was precipitated with 10% trichloroacetic acid onto glass fiber filter mats using a SKATRON multi-well cell harvester (Skatron Instruments, Sterling Va.). Radioactivity incorporated into DNA, as a direct measurement of cell growth, was measured by liquid scintillation counting. The numbers represent the mean disintegrations per minute of incorporated thymidine from triplicate wells±SEM.

[4] = test system: hairless mice [Crl:SKH1-hrBR]; experiment: Eight day topical skin irritation assay in hairless mice; settings: 5 days
Protocol: More particularly, skin irritation was measured on a semi-quantitative scale by the daily subjective evaluation of skin flaking and abrasions. A single number, the topical irritation score, summarizes the skin irritation induced in an animal during the course of an experiment. The topical irritation score is calculated as follows. The topical irritation score is the algebraic sum of a composite flaking score and a composite abrasion score. The composite scores range from 0-9 and 0-8 for flaking and abrasions, respectively, and take into account the maximum severity, the time of onset, and the average severity of the flaking and abrasions observed.
The severity of flaking is scored on a 5-point scale and the severity of abrasions is scored on a 4-point scale, with higher scores reflecting greater severity. The maximum severity component of the composite scores would be the highest daily severity score assigned to a given animal during the course of observation.
For the time of onset component of the composite score, a score ranging from 0 to 4 is assigned as follows:
The average severity component of the composite score is the sum of the daily flaking or abrasion scores divided by the number of observation days.
To calculate the composite flaking and abrasion scores, the average severity and time of onset scores are summed and divided by 2. The result is added to the maximal severity score. The composite flaking and abrasion scores are then summed to give the overall topical irritation score. Each animal receives a topical irritation score, and the values are expressed as the mean±SD of the individual scores of a group of animals. Values are rounded to the nearest integer.
Thus, female hairless mice [Crl:SKH1-hrBR] […] Treatments are applied to the dorsal skin in a total volume of 4 ml/kg (−0.1 ml).

CC1(C)CC(C)(C)c2cc(C(=O)Nc3ccc(C(=O)O)c(F)c3)cc(I)c2O1 [Compound 18]
IC50 [1]: 0.22 µg/mL (≈ 0.442 µM)
weight loss compared to control [2]: virtually no weight loss even in the high dose of 90 μmol/kg/day
AML-193 cell proliferation at low concentrations [3]: reduce cell proliferation at low concentrations
Abrasion Score ([4]; dose 100 nanomol/25 g topical): 1
Body Weight % gain or (loss) ([4]; dose 100 nanomol/25 g topical): 8 ± 7%
Composite Score ([4]; dose 100 nanomol/25 g topical): 1 ± 1
Flaking Score ([4]; dose 100 nanomol/25 g topical): 0
Mortality (out of 4) ([4]; dose 100 nanomol/25 g topical): 0 out of 4
Abrasion Score ([4]; dose 1000 nanomol/25 g topical): 1
Body Weight % gain or (loss) ([4]; dose 1000 nanomol/25 g topical): 4 ± 1%
Composite Score ([4]; dose 1000 nanomol/25 g topical): 2 ± 0
Flaking Score ([4]; dose 1000 nanomol/25 g topical): 1
Mortality (out of 4) ([4]; dose 1000 nanomol/25 g topical): 0 out of 4
